Results published in patent US6528095B1, “Anti-atherosclerotic and anti-thrombotic agent and the use thereof” (Potchefstroom University for Christian Higher Education, priority 2000, dated 2003).

What was measured:
fibrin clot = experiment: Supplementation in human males: haemostatic variables and characteristics of fibrin networks developed in plasma; format: in vivo; conditions: for CLOT (FIBRIN): clot fibrin content; for LYSIS TIME (t 50%): clot; for COMPACTION: fibrin clot; for MPC: macromolecular protein complex; for μ,: mass length ratio from turbidity; for FIBRINOGEN: plasma
Procedure: (§1) The respective effects of pectin and an acetate when administered to the colon of a mammal were determined during a first experiment. The experiment was conducted in the following two phases: [drawing 1]
(§2) Twenty human males participated in the experimentation and these subjects were not on any medication for any chronic diseases at the time, and also had no history of cardiovascular disease. All the subjects were at the time following a relatively high fibre, low fat diet. During the first phase ten subjects consumed a total of 15 grams of pectin per day in four aliquots, while the other ten consumed a total of 15 grams of placebo (starch) per day in four aliquots.
(§3) During the second phase, the first group consumed a total of 7.5 grams of calcium acetate per day in four aliquots and the second group consumed a total of 15 grams of pectin per day in four aliquots. The calcium acetate was administered in capsules which were coated with a protective coating comprising a resin known commercially as shellac. This protective coating is resistant to digestion and solution in the stomach and small intestines, is but not resistant to the enzymes of the organisms usually found in the colon, so that the calcium acetate was thus released in the colon.
(§4) Blood samples where taken from the subjects after each phase and a large number of variables where tested.

[1] = Supplementation in human males: haemorheological variables (haematocrit, haemoglobin, plasma viscosity); format: in vivo; conditions: for VISCOSITY: plasma
Procedure: as §1, §2, §3, §4

blood lipids = experiment: Supplementation in human males: lipid variables; format: in vivo; conditions: for TC: total cholesterol; for TG: triglycerides
Procedure: as §1, §2, §3, §4

[2] = Supplementation in human males: metabolic variables; conditions: for FFA: free fatty acids; for IR: insulin resistance; for TP: total protein
Procedure: as §1, §2, §3, §4

[3] = Pectin / calcium acetate supplementation in human males: body weight and BMI; format: in vivo
Excerpt: The acetate supplement (phase 2), however, caused a decrease (from 88.16±12.35 kg to 83.09±10.80 kg) in body weight. Although this decrease may not be of statistical significance, it can be clinically significant in the cases of those subjects who lost weight.

[4] = as above; format: in vivo; remark: listed apart in the source
[5] = phase 1, end of supplementation (pectin 15 g/day)
[6] = phase 2, end of supplementation (pectin 15 g/day; calcium acetate 7.5 g/day)

pectin
CLOT (FIBRIN) (fibrin clot; phase 1, baseline): 2.22 g/L
CLOT (FIBRIN) (fibrin clot; [5]): 1.90 ± g/l
CLOT (FIBRIN) (fibrin clot; phase 2, baseline): 2.55 g/L
CLOT (FIBRIN) (fibrin clot; [6]): 1.86 ± g/l
LYSIS TIME (t 50%) (fibrin clot; phase 1, baseline): 285.6
LYSIS TIME (t 50%) (fibrin clot; [5]): 232.9 ±
LYSIS TIME (t 50%) (fibrin clot; phase 2, baseline): 285.6
LYSIS TIME (t 50%) (fibrin clot; [6]): 132.9 ±
COMPACTION (fibrin clot; phase 1, baseline): 21.51%
COMPACTION (fibrin clot; [5]): 30.16 ± %
COMPACTION (fibrin clot; phase 2, baseline): 20.67%
COMPACTION (fibrin clot; [6]): 31.53 ± %
MPC (fibrin clot; phase 1, baseline): 0.1218 g/L
MPC (fibrin clot; [5]): 0.0836 ± g/l
MPC (fibrin clot; phase 2, baseline): 0.1002 g/L
MPC (fibrin clot; [6]): 0.0807 ± g/l
μ, (fibrin clot; phase 1, baseline): 19.94 Dal/cm × 10^12
μ, (fibrin clot; [5]): 24.80 ± Dal/cm × 10^12
μ, (fibrin clot; phase 2, baseline): 19.02 Dal/cm × 10^12
μ, (fibrin clot; [6]): 32.10 ± Dal/cm × 10^12
FIBRINOGEN (fibrin clot; phase 1, baseline): 3.51 g/L
FIBRINOGEN (fibrin clot; [5]): 3.30 g/L
FIBRINOGEN (fibrin clot; phase 2, baseline): 4.11 g/L
FIBRINOGEN (fibrin clot; [6]): 3.72 g/L
HAEMATOCRIT ([1]; phase 1, baseline): 48.70%
HAEMOGLOBIN ([1]; phase 1, baseline): 10.30 mmol/L
HAEMATOCRIT [1, 5]: 48.10%
HAEMOGLOBIN [1, 5]: 9.60 ± mmol/l
HAEMATOCRIT ([1]; phase 2, baseline): 47.38%
HAEMOGLOBIN ([1]; phase 2, baseline): 10.82 mmol/L
HAEMATOCRIT [1, 6]: 45.39%
HAEMOGLOBIN [1, 6]: 9.75 ± mmol/l
VISCOSITY ([1]; phase 1, baseline): 1.81 cP
VISCOSITY [1, 5]: 1.60 ± cP
VISCOSITY ([1]; phase 2, baseline): 1.75 cP
VISCOSITY [1, 6]: 1.62 ± cP
decrease in hydrogen peroxide (free radical) content of blood lipids (blood lipids; pectin supplementation): 49%
% HDL-C (blood lipids; phase 1, baseline): 18.30%
ApoA (blood lipids; phase 1, baseline): 1.60 mmol/L
ApoB (blood lipids; phase 1, baseline): 1.70 mmol/L
HDL-C (blood lipids; phase 1, baseline): 1.20 mmol/L
LDL-C (blood lipids; phase 1, baseline): 4.70 mmol/L
TBARM (blood lipids; phase 1, baseline): 0.60 µM
hydrogen peroxide (H2O2) (blood lipids; phase 1, baseline): 1.70 µM
% HDL-C (blood lipids; [5]): 18.20 ± %
ApoA (blood lipids; [5]): 1.23 ± mmol/l
ApoB (blood lipids; [5]): 1.29 ± mmol/l
HDL-C (blood lipids; [5]): 1.03 ± mmol/l
LDL-C (blood lipids; [5]): 4.10 ± mmol/l
TBARM (blood lipids; [5]): 0.30 µM
hydrogen peroxide (H2O2) (blood lipids; [5]): 0.84 ± μM
% HDL-C (blood lipids; phase 2, baseline): 15.46%
ApoA (blood lipids; phase 2, baseline): 1.53 mmol/L
ApoB (blood lipids; phase 2, baseline): 1.77 mmol/L
HDL-C (blood lipids; phase 2, baseline): 0.92 mmol/L
LDL-C (blood lipids; phase 2, baseline): 5.17 mmol/L
TBARM (blood lipids; phase 2, baseline): 2.06 µM
hydrogen peroxide (H2O2) (blood lipids; phase 2, baseline): 1.20 µM
% HDL-C (blood lipids; [6]): 18.79 ± %
ApoA (blood lipids; [6]): 1.39 ± mmol/l
ApoB (blood lipids; [6]): 1.39 ± mmol/l
HDL-C (blood lipids; [6]): 1.13 ± mmol/l
LDL-C (blood lipids; [6]): 4.59 mmol/L
TBARM (blood lipids; [6]): 0.61 ± μM
hydrogen peroxide (H2O2) (blood lipids; [6]): 0.73 ± μM
TC (blood lipids; phase 1, baseline): 6.50 mmol/L
TC (blood lipids; [5]): 5.67 ± mmol/l
TC (blood lipids; phase 2, baseline): 6.89 mmol/L
TC (blood lipids; [6]): 6.07 mmol/L
TG (blood lipids; phase 1, baseline): 2.00 mmol/L
TG (blood lipids; [5]): 1.78 mmol/L
TG (blood lipids; phase 2, baseline): 1.99 mmol/L
TG (blood lipids; [6]): 1.78 mmol/L
FFA ([2]; phase 1, baseline): 0.39 mmol/L
FFA [2, 5]: 0.31 ± mmol/l
FFA ([2]; phase 2, baseline): 0.48 mmol/L
FFA [2, 6]: 0.40 ± mmol/l
IR ([2]; phase 1, baseline): 4.29
IR [2, 5]: 4.16
IR ([2]; phase 2, baseline): 9.40
IR [2, 6]: 5.77
ALBUMIN ([2]; phase 1, baseline): 47.23 g/L
GLUCOSE ([2]; phase 1, baseline): 3.98 mmol/L
INSULIN ([2]; phase 1, baseline): 10.95 μU/ml
PPA/ALB ([2]; phase 1, baseline): 8.26 × 10^1
ALBUMIN [2, 5]: 47.79 g/L
GLUCOSE [2, 5]: 3.72 mmol/L
INSULIN [2, 5]: 11.25 μU/ml
PPA/ALB [2, 5]: 6.49 ± × 10^1
ALBUMIN ([2]; phase 2, baseline): 45.53 g/L
GLUCOSE ([2]; phase 2, baseline): 4.29 mmol/L
INSULIN ([2]; phase 2, baseline): 18.55 μU/ml
PPA/ALB ([2]; phase 2, baseline): 10.50 × 10^1
ALBUMIN [2, 6]: 45.48 ± g/l
GLUCOSE [2, 6]: 4.00 mmol/L
INSULIN [2, 6]: 13.83 μU/ml
PPA/ALB [2, 6]: 8.78 ± × 10^1
TP ([2]; phase 1, baseline): 60.55 g/L
TP [2, 5]: 66.84 g/L
TP ([2]; phase 2, baseline): 72.36 g/L
TP [2, 6]: 75.21 g/L
BMI ([3]; phase 2, baseline): 29.46 kg/m^2
BODY WEIGHT ([3]; phase 2, baseline): 92.07 kg
BMI [3, 6]: 29.32 kg/m^2
BODY WEIGHT [3, 6]: 91.55 kg
weight reduction ([4]; pectin supplemented subject group): No weight reduction
BMI ([4]; phase 1, baseline): 27.50 kg/m^2
BODY WEIGHT ([4]; phase 1, baseline): 89.50 kg
BMI [4, 5]: 27.40 kg/m^2
BODY WEIGHT [4, 5]: 89.10 kg
